Assay results reported in patent US20090036449A1, “Indazolesquaric Acid Derivatives as Chk1, Chk2 and Sgk Inhibitors” (priority 2005, published 2009).

Molecular target: T1, SGK1 protein kinase (Homo sapiens, UniProt O00141)
T1 sequence (O00141 1-431): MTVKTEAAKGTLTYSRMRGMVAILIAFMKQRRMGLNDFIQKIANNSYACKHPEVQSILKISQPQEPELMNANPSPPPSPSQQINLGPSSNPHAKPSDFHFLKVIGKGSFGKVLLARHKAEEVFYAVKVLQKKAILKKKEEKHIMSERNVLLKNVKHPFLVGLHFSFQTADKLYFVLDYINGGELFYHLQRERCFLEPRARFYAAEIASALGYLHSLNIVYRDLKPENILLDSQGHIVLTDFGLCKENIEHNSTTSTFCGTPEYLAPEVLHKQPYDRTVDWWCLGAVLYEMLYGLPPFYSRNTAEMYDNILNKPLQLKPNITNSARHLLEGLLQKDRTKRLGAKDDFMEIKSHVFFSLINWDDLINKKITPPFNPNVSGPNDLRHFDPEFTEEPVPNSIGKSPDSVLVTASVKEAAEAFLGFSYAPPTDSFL
Assay: SGK inhibition (filter binding method, analogously to CHK1, CHK2)
Format: biochemical
Protocol: (§1) 5-20 mU of CHK1 kinase (diluted in 20 mM MOPS pH7.5, 1 mM EDTA, 0.1% β-mercaptoethanol, 0.01% Brij-35, 5% glycerol, 1 mg/ml of BSA) are incubated for 30 min at room temperature in the presence of 30-200 μM CHKtide in 25.5 μl in 1-fold reaction buffer (8 mM MOPS pH7, 0.2 mM EDTA, 10 mM magnesium acetate, 0.02 mM ^33P-ATP [500-1000 cpm/pmol]). The reaction is stopped using 5 μl of 0.5 M ortho-phosphoric acid and filtered through P81 filter plates. After the filter plates have been washed a number of times, the bound radioactivity is determined in a scintillation counter.
as §1, with “CHK2” for “CHK1”, “CHKtide ([…])” for “CHKtide”
The inhibition of SGK1 protein kinase can be determined in the filter binding method (analogously to CHK1, CHK2).

Row | Structure (SMILES) | IC50 [µM]
1 | COc1cccc([C@@H](C)Nc2c(Nc3ccc4[nH]nc(NC(=O)c5ccccc5)c4c3)c(=O)c2=O)c1 [Compound 42, 3-(3-benzoylamino-1H-indazol-5-ylamino)-4-[(R)-1-(3-methoxyphenyl)ethylamino]cyclobut-3-ene-1,2-dione] | 0.01
2 | COc1cccc(CNc2c(Nc3ccc4[nH]nc(NC(=O)c5ccccc5)c4c3)c(=O)c2=O)c1 [Compound 41, 3-(3-benzoylamino-1H-indazol-5-ylamino)-4-(3-methoxybenzylamino)cyclobut-3-ene-1,2-dione] | 0.0615
3 | O=C(Nc1n[nH]c2ccc(Nc3c(NCc4cccc(O)c4)c(=O)c3=O)cc12)c1ccccc1 [Compound 40, 3-(3-benzoylamino-1H-indazol-5-ylamino)-4-(3-hydroxybenzylamino)cyclobut-3-ene-1,2-dione] | 0.01
